Results from PMC11509005, “Synthesis, Cytotoxicity, and Mechanistic Evaluation of Tetrahydrocurcumin-Amino Acid Conjugates as LAT1-Targeting Anticancer Agents in C6 Glioma Cells” (International Journal of Molecular Sciences, 2024).
Read-outs that look alike come from different tables or passages of the source.

Assays:
C6 glioma cells [1] = experiment: MTT cell viability of BCH and of THC-di-Phe with or without LAT1 inhibitor BCH; type: cell-based; conditions: 24 h
Description: To investigate the role of THC-conjugated amino acid conjugates on LAT1, THC-amino acid conjugates were co-incubated with an inhibitor of LAT1 (BCH). The cells were seeded overnight at 2 × 10^4 cells/well in 96-well plates. Initially, the cells were treated with different concentrations of BCH (5, 10, and 20 mM) for 24 h, followed by the MTT assay to identify the maximum non-toxic concentration of BCH. Then, the cells were treated with THC-di-Phe at 12.5, 25, and 50 μM concentrations with or without 5 mM BCH for 24 h. The cell viability was measured by MTT assay.

LAT1 = tested on: LAT1; parameters: method as in PMID 18520037; conditions: BCH 3 mM, C6 glioma cells; cited from earlier work
C6 glioma cells [2] = tested on: C6 glioma cells; parameters: method as in PMID 18520037; conditions: cited from earlier work
C6 glioma cells [3] = experiment: Cell scratch (wound closure, migration) assay; type: cell-based; conditions: 10 µM, % of wound closure compared to 0 h; for wound closure at 24 h: control 71.4%; for wound closure at 48 h: control 100%
Description: Properties of cell migration were assayed using a cell scratch assay. Briefly, the cells were seeded in 24-well plates at a concentration of 100,000 cells/well, followed by treatment of the cells using 10 µM THC and 10 µM THC-di-Phe. The cell layers were then scrapped with a 200 µL pipette tip to form a wound. The ability of the cells to close the wound was observed under an inverted microscope (Nikon TS2, Tokyo, Japan) at 0, 24, and 48 h post-treatment. Wound closure was further analyzed using ImageJ software (version 1.53e, Wayne Rasband and contributors, National Institutes of Health, USA).

C6 glioma cells [4] = experiment: MTT cytotoxicity in C6 glioma cells; type: cell-based
Description: (§1) C6 glioma cells and BJ fibroblast cells (ATCC, Manassas, VA, USA) were used as models for brain cancer and normal cells, respectively. The cells were cultured in DMEM media (Sigma–Aldrich, St. Louis, MO, USA) supplemented with 10% fetal bovine serum (Merck Millipore, Burlington, MA, USA) and 1% penicillin-streptomycin (Caisson Labs, Smithfield, UT, USA). The cells were maintained in an incubator with 5% CO2 at 37 °C and 95% humidity.
(§2) Cell viability was assessed using the 3-(4,5-dimethylthiazol-2-yl)-2,5-diphenyltetrazolium bromide (MTT) assay (Sigma–Aldrich, St. Louis, MO, USA). Cells were seeded in 96-well plates at a density of 2 × 10^4 cells/well and incubated for 24 h. The cells were then treated with various concentrations of THC and equimolar concentrations of THC-amino acid conjugates (0, 31.25, 62.5, 125, 250, and 500 μM) for 24 and 48 h in cancer cells, and for 24 h in normal cells. After treatment, the media were removed and replaced with MTT solution (0.5 mg/mL), followed by incubation for 3 h. The resulting formazan crystals were dissolved in DMSO (Sigma–Aldrich, St. Louis, MO, USA). Absorbance was measured using a microplate reader at a wavelength of 570 nm (CLARIOstar®, BMG Labtech, Ortenberg, Germany).

C6 cells = experiment: Cell proliferation assay (MTT); type: cell-based; conditions: 10 µM, 24 h and 48 h post-treatment
Description: The effects of THC-di-Phe on cell cancer proliferation were assessed using a cell proliferation assay. Briefly, C6 cells were seeded in a 96-well plate at a concentration of 5000 cells/well and then incubated overnight. Cells were then incubated with 10 µM THC and THC-di-Phe for 24 and 48 h. The morphology of the cells was observed under a light microscope. Then, the cells were incubated with MTT solution (0.5 mg/mL), and the formed formazan crystals were dissolved in DMSO. The absorbance was measured using a microplate reader (CLARIOstar®, BMG Labtech, Ortenberg, Germany) at the wavelength of 570 nm.

BJ fibroblast cells = experiment: MTT cytotoxicity in normal BJ fibroblast cells; type: cell-based; conditions: 24 h treatment
Description: as §1, §2

P70S6K/S6 pathway = experiment: Western blot of P70S6K and S6 phosphorylation; type: cell-based; conditions: 10 µM, C6 cells, 8, 16 and 24 h post-treatment
Description: C6 cells were seeded in a 6-well plate with a density of 1 × 10^6 cells for 24 h. The cells were treated with THC and THC-di-Phe for 8, 16, and 24 h. The cells were washed in ice-cold phosphate-buffered saline (PBS) and lysed with ice-cold lysis buffer containing protease and phosphatase inhibitors. The cells in the lysis buffer were centrifuged at 14,000 rpm at 4 °C for 10 min. The protein concentration in the supernatant was quantified using Pierce™ BCA protein assay. After the quantification, equal amounts of protein were resolved by SDS–PAGE and transferred into a nitrocellulose membrane. The membranes were then blocked with 5% dry milk and probed with primary antibody including p70S6K, p-p70S6K, S6, p-S6 (Cell Signaling Technology (Beverly, MA, USA), followed by adding the species-specific horseradish […] conjugated secondary antibody (Cell Signaling Technology (Beverly, MA, USA). The membrane was incubated with a chemiluminescent detection kit solution, followed by X-ray film imaging to visualize protein levels. The level of phosphorylation of each protein was normalized to its normal form.

C6 glioma cells [5] = experiment: Annexin V/PI double staining by flow cytometry; type: cell-based; conditions: 20 μM, 24 h, mean ± S.D., n = 3
Description: Annexin V/PI staining by flow cytometry was performed to indicate the stage of cell fate, including necrosis, early and late apoptosis, and viable cells. Briefly, the cells were treated with the THC and THC-di-Phe at 20 µM. After 24 h, the cells were harvested and further analyzed by flow cytometry. Annexin V/PI staining by flow cytometry was performed according to the manufacturer’s instructions (BioLegend, San Diego, CA, USA).

C6 glioma cells [6] = experiment: MTT cytotoxicity in C6 glioma cells; type: cell-based; conditions: tested at 5 to 40 µM, Supplementary Figure S29
C6 glioma cells [7] = experiment: Hoechst 33342/PI double staining assay (apoptosis and necrosis); type: cell-based; conditions: 20 and 40 µM and higher concentrations
Description: Apoptosis and necrosis were assessed using the Hoechst 33342/PI double staining assay (Sigma–Aldrich, St. Louis, MO, USA). After treatment, the cells were viewed using a fluorescence microscope (Olympus IX51 inverted microscope, Tokyo, Japan). Hoechst 33342 dye stains cells with blue color, either dead or alive. Apoptotic cells are indicated by condensed and fragmented chromatin. Propidium iodide (PI) stains cells in red, which can only stain damaged cells and is used as an indicator of cellular necrosis.

[8] = 24 h treatment, read-out: IC50 at 24 h, C6 cells
[9] = 48 h treatment, read-out: IC50 at 48 h, C6 cells

Row | Molecule | wound closure at 24 h (C6 glioma cells [3]) [%] | wound closure at 48 h (C6 glioma cells [3]) [%] | IC50 (C6 glioma cells [4]; [8]) [µM] | IC50 (C6 glioma cells [4]; [9]) [µM] | proliferation ability of C6 cells compared to the control (C6 cells) | phosphorylation of P70S6K and S6 compared to control (P70S6K/S6 pathway) | necrotic cell death (C6 glioma cells [5]) [%] | percentage of late apoptotic cells (C6 glioma cells [5]) [%] | IC50 (BJ fibroblast cells) [µM] | further results
1 | NC1(C(=O)O)CC2CCC1C2 (centres unmarked) [BCH, 2-Aminobicyclo-(2,2,1)-heptane-2-carboxylic acid] |  |  |  |  |  |  |  |  |  | maximum non-toxic concentration (C6 glioma cells [1]; C6 glioma cells, MTT): 5 mM; inhibition of LAT1 activity (LAT1): completely inhibit; cytotoxicity at 3 mM (C6 glioma cells [2]; BCH 3 mM, 24 h incubation): no significant cytotoxicity; cytotoxicity at 10 mM (C6 glioma cells [2]; BCH 10 mM): significant toxicity
2 | COc1cc(CCC(=O)CC(=O)CCc2ccc(O)c(OC)c2)ccc1O [THC, Tetrahydrocurcumin] | 46.3 | 81.4 | 111 | 52.9 | significant reduction of cell proliferation by THC was only observed 48 h post-treatment | did not significantly modulate | 2.73 ± 0.15 | 2.33 ± 0.32 |  | IC50 (BJ fibroblast cells; Homo sapiens): 184 ± 31.8 µM
3 | (Z)-2,2′-(((((3-Hydroxy-5-oxohept-3-ene-1,7-diyl)bis(2-methoxy-4,1 phenylene))bis(oxy))bis (carbonyl))bis(azanediyl))diacetic acid [THC-di-Gly] |  |  | > 500 | > 500 |  |  |  |  | > 500 | 
4 | (Z)-2,2′-(((((3-Hydroxy-5-oxohept-3-ene-1,7-diyl)bis(2-methoxy-4,1-phenylene))bis(oxy))bis (carbonyl))bis(azanediyl))bis(3-methylpentanoic acid) [THC-di-Ile] |  |  | > 500 | > 500 |  |  |  |  | > 500 | 
5 | (Z)-2,2′-(((((3-Hydroxy-5-oxohept-3-ene-1,7-diyl)bis(2-methoxy-4,1-phenylene))bis(oxy))bis (carbonyl))bis(azanediyl))bis(3-phenylpropanoic acid) [THC-di-Phe] | 32.8 | 65.2 | 35.8 | 26.8 | significantly inhibited | significantly inhibited | 5.01 ± 0.64 | 6.07 ± 1.13 | 470 ± 20.4 | cell death on co-incubation with BCH vs THC-di-Phe alone, lower concentrations (C6 glioma cells [1]; THC-di-Phe 12.5 and 25 μM, 5 mM BCH): significantly increased cell death; cell death with or without BCH, higher concentrations (C6 glioma cells [1]; THC-di-Phe 50 and 100 μM, 5 mM BCH): comparable cellular death; concentrations toxic to C6 glioma cells (C6 glioma cells [6]): above 10 µM; induction of cellular apoptosis (Hoechst 33342/PI) (C6 glioma cells [7]): observed
6 | (Z)-2,2′-(((((3-Hydroxy-5-oxohept-3-ene-1,7-diyl)bis(2-methoxy-4,1-phenylene))bis(oxy))bis (carbonyl))bis(azanediyl))bis(4-methylpentanoic acid) [THC-di-Leu] |  |  | 350 ± 52.6 | 350 ± 129 |  |  |  |  | > 500 | 
